From ChEMBL document CHEMBL4507317, “Data for DCP probe BAY-899” (2021)

Key:
[1] = target: Serine/threonine-protein kinase 3 (Homo sapiens) (UniProt Q13188); conditions: Compound concentration 1000.0 nM
[2] = tested on: Epidermal growth factor receptor (Homo sapiens), P00533 [UNDEFINED MUTATION]; conditions: Compound concentration 1000.0 nM
[3] = target: Dual specificity mitogen-activated protein kinase kinase 7 (Homo sapiens) (UniProt O14733); conditions: Compound concentration 1000.0 nM
[4] = target: Cyclin-G-associated kinase (Homo sapiens) (UniProt O14976); conditions: Compound concentration 1000.0 nM
[5] = target: Cyclin-dependent kinase 3 (Homo sapiens) (UniProt Q00526); conditions: Compound concentration 1000.0 nM
[6] = target: Serine/threonine-protein kinase SIK3 (Homo sapiens) (UniProt Q9Y2K2); conditions: Compound concentration 1000.0 nM
[7] = target: Tyrosine-protein kinase BTK (Homo sapiens) (UniProt Q06187); conditions: Compound concentration 1000.0 nM
Tyrosine-protein kinase BTK (Homo sapiens), sequence (Q06187 whole entry): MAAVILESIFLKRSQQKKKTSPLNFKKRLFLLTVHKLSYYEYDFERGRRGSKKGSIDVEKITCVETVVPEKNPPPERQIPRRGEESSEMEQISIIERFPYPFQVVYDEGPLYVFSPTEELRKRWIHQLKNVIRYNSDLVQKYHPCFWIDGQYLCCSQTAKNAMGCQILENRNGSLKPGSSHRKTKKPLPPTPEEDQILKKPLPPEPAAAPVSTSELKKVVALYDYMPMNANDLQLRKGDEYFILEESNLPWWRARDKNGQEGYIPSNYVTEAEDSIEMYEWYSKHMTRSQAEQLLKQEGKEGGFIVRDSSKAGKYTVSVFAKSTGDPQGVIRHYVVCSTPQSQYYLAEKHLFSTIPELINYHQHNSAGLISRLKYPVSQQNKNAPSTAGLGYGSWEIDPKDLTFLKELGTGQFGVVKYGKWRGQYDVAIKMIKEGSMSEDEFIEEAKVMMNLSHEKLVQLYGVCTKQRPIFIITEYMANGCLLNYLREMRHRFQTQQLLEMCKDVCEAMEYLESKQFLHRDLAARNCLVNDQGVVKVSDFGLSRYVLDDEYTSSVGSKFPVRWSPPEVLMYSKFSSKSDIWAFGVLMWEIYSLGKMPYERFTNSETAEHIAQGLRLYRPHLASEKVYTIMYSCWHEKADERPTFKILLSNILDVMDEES

[8] = target: Cyclin-dependent kinase 11B (Homo sapiens) (UniProt P21127); conditions: Compound concentration 1000.0 nM
[9] = target: Non-receptor tyrosine-protein kinase TYK2 (Homo sapiens) (UniProt P29597); conditions: Compound concentration 1000.0 nM
[10] = target: Tyrosine-protein kinase Mer (Homo sapiens) (UniProt Q12866); conditions: Compound concentration 1000.0 nM
Tyrosine-protein kinase Mer (Homo sapiens), sequence (Q12866 whole entry): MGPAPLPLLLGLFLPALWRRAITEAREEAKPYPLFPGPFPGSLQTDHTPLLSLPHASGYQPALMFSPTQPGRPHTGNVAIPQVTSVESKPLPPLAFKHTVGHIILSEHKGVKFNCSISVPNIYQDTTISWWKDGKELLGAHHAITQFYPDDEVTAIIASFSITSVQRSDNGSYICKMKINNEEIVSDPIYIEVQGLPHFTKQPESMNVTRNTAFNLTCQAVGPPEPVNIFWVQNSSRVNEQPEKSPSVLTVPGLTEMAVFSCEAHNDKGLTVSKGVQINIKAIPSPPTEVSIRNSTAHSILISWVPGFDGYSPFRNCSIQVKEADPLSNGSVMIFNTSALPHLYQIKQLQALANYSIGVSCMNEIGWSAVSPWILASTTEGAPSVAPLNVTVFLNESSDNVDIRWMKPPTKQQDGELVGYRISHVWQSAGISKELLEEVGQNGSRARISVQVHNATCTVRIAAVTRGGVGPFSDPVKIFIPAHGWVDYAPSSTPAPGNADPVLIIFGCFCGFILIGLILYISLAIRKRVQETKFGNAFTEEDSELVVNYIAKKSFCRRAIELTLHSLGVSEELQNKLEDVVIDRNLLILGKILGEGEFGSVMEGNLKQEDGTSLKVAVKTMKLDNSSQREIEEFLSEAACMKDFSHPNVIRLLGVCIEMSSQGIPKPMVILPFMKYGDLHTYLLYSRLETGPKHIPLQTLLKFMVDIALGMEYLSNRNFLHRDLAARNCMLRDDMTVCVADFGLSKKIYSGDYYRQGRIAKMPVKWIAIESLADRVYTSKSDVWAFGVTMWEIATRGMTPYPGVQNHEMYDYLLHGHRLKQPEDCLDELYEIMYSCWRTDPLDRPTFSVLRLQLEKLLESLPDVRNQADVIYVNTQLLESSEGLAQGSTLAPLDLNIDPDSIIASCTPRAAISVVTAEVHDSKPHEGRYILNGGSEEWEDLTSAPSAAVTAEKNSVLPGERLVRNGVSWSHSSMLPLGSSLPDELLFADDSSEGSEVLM

[11] = target: Tyrosine-protein kinase Lyn (Homo sapiens) (UniProt P07948); conditions: Compound concentration 1000.0 nM
[12] = target: Mitogen-activated protein kinase kinase kinase 15 (Homo sapiens) (UniProt Q6ZN16); conditions: Compound concentration 1000.0 nM
[13] = target: Ephrin type-B receptor 3 (Homo sapiens) (UniProt P54753); conditions: Compound concentration 1000.0 nM
[14] = target: Receptor tyrosine-protein kinase erbB-2 (Homo sapiens) (UniProt P04626); conditions: Compound concentration 1000.0 nM
[15] = target: Homeodomain-interacting protein kinase 3 (Homo sapiens) (UniProt Q9H422); conditions: Compound concentration 1000.0 nM
[16] = target: Dual specificity protein kinase CLK3 (Homo sapiens) (UniProt P49761); conditions: Compound concentration 1000.0 nM
[17] = tested on: Hepatocyte growth factor receptor (Homo sapiens), P08581 [M1250T]; conditions: Compound concentration 1000.0 nM
[18] = target: NT-3 growth factor receptor (Homo sapiens) (UniProt Q16288); conditions: Compound concentration 1000.0 nM
NT-3 growth factor receptor (Homo sapiens), sequence (Q16288 32-839 limits assumed): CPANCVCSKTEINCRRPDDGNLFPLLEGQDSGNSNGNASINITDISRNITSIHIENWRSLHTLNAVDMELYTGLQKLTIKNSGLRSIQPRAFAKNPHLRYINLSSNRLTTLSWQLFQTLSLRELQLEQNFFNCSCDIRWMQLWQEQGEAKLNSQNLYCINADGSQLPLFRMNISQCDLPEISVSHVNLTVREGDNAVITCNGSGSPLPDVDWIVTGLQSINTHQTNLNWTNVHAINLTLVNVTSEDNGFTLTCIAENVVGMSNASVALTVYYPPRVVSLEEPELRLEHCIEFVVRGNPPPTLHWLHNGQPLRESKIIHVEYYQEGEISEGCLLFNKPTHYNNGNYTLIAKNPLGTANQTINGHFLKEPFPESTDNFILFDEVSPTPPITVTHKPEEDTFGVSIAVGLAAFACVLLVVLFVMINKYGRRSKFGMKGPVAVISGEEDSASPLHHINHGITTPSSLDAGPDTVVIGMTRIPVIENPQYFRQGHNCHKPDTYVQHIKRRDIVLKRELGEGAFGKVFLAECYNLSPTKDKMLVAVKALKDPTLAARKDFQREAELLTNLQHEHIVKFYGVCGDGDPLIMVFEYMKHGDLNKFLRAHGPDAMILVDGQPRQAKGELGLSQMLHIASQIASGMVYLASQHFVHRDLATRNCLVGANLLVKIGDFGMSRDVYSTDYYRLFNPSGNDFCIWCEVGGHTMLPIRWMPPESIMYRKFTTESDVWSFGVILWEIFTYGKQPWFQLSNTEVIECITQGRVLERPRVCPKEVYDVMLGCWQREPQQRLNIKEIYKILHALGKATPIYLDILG

[19] = target: Cyclin-dependent kinase 19 (Homo sapiens) (UniProt Q9BWU1); conditions: Compound concentration 1000.0 nM
[20] = target: Cyclin-dependent kinase 4 (Homo sapiens) (UniProt P11802); conditions: Compound concentration 1000.0 nM
[21] = target: Serine/threonine-protein kinase 26 (Homo sapiens) (UniProt Q9P289); conditions: Compound concentration 1000.0 nM
[22] = target: Ephrin type-B receptor 6 (Homo sapiens) (UniProt O15197); conditions: Compound concentration 1000.0 nM
[23] = target: Dual specificity protein kinase CLK2 (Homo sapiens) (UniProt P49760); conditions: Compound concentration 1000.0 nM
[24] = target: Calcium/calmodulin-dependent protein kinase type II subunit beta (Homo sapiens) (UniProt Q13554); conditions: Compound concentration 1000.0 nM
[25] = target: Phosphatidylinositol 4-kinase beta (Homo sapiens) (UniProt Q9UBF8); conditions: Compound concentration 1000.0 nM
[26] = target: Platelet-derived growth factor receptor alpha (Homo sapiens) (UniProt P16234); conditions: Compound concentration 1000.0 nM
[27] = tested on: Tyrosine-protein kinase ABL1 (Homo sapiens), P00519 [Q252H]; conditions: Compound concentration 1000.0 nM
[28] = target: LIM domain kinase 2 (Homo sapiens) (UniProt P53671); conditions: Compound concentration 1000.0 nM
LIM domain kinase 2 (Homo sapiens), sequence (P53671 whole entry, looked up, the tested form may be a part): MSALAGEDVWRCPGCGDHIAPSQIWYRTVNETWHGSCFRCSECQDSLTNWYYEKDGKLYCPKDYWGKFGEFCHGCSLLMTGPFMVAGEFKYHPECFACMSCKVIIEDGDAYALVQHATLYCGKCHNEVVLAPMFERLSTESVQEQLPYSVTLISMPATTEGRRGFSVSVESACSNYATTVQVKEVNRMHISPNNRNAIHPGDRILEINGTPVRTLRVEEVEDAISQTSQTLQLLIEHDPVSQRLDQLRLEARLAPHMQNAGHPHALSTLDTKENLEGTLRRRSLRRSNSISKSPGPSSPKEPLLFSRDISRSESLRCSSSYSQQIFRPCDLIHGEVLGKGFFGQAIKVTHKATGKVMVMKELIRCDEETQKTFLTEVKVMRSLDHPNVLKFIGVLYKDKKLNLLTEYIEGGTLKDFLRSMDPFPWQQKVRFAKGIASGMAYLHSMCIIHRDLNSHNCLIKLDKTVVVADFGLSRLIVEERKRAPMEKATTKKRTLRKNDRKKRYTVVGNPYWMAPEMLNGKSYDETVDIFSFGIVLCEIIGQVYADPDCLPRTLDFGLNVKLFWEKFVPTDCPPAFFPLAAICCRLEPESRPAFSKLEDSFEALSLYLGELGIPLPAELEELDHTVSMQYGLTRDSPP

[29] = target: Ephrin type-A receptor 7 (Homo sapiens) (UniProt Q15375); conditions: Compound concentration 1000.0 nM
[30] = target: Phosphatidylinositol 5-phosphate 4-kinase type-2 gamma (Homo sapiens) (UniProt Q8TBX8); conditions: Compound concentration 1000.0 nM
Phosphatidylinositol 5-phosphate 4-kinase type-2 gamma (Homo sapiens), sequence (Q8TBX8 whole entry): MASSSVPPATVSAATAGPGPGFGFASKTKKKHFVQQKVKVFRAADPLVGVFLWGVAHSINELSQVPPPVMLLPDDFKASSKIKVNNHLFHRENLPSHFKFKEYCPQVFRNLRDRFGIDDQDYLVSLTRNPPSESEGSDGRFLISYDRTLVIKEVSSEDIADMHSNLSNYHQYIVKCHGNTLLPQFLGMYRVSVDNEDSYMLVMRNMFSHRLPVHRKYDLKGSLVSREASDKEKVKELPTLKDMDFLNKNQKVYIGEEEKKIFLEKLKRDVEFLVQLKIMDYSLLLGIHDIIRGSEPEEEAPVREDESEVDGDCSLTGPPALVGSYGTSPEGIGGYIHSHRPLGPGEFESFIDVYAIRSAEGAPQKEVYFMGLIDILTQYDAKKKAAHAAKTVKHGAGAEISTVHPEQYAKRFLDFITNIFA

[31] = target: Myotonin-protein kinase (Homo sapiens) (UniProt Q09013); conditions: Compound concentration 1000.0 nM
Myotonin-protein kinase (Homo sapiens), sequence (Q09013 whole entry, canonical isoform): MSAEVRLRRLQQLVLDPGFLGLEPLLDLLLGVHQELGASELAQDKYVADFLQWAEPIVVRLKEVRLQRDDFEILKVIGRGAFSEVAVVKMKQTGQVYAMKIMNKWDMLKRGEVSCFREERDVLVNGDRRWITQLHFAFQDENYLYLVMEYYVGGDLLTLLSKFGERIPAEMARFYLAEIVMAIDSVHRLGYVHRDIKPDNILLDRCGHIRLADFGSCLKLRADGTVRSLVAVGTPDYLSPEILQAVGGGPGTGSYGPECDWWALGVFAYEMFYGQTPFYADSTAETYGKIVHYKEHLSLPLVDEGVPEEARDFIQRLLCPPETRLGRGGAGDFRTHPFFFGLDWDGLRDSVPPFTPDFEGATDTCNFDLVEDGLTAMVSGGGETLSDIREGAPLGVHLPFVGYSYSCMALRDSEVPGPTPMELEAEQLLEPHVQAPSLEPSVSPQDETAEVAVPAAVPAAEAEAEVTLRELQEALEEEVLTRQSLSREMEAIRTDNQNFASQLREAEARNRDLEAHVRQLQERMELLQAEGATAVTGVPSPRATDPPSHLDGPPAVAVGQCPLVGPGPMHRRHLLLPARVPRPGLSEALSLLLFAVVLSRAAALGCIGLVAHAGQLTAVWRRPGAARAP

[32] = tested on: Phosphatidylinositol 4,5-bisphosphate 3-kinase catalytic subunit alpha isoform (Homo sapiens), P42336 [Q546K]; conditions: Compound concentration 1000.0 nM
[33] = target: Serine/threonine-protein kinase PAK 1 (Homo sapiens) (UniProt Q13153); conditions: Compound concentration 1000.0 nM
[34] = target: Protein kinase C eta type (Homo sapiens) (UniProt P24723); conditions: Compound concentration 1000.0 nM
[35] = target: MAP/microtubule affinity-regulating kinase 4 (Homo sapiens) (UniProt Q96L34); conditions: Compound concentration 1000.0 nM
[36] = target: Mitogen-activated protein kinase kinase kinase kinase 3 (Homo sapiens) (UniProt Q8IVH8); conditions: Compound concentration 1000.0 nM
Mitogen-activated protein kinase kinase kinase kinase 3 (Homo sapiens), sequence (Q8IVH8 whole entry): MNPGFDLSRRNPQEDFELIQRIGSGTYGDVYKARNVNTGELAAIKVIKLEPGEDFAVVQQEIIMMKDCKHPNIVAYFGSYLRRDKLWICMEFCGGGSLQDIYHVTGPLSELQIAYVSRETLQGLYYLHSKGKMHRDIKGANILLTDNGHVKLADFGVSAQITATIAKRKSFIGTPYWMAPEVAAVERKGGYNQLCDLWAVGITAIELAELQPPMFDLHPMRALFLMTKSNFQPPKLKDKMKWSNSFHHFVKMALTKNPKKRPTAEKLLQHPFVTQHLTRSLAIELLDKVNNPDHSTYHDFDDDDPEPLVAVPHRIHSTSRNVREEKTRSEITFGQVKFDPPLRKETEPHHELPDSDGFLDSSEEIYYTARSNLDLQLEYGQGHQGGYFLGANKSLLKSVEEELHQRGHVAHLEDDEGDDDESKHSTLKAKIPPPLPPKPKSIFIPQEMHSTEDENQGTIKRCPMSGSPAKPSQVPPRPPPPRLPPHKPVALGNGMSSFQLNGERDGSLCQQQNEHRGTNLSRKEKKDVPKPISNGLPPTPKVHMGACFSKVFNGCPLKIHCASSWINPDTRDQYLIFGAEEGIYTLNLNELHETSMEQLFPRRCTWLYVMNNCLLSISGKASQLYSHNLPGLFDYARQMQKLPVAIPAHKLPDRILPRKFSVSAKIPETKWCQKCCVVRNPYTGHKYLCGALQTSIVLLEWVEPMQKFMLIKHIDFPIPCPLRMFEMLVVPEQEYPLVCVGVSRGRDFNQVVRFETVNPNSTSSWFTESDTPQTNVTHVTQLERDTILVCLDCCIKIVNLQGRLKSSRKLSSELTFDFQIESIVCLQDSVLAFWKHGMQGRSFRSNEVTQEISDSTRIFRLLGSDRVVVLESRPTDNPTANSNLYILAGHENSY

[37] = target: Citron Rho-interacting kinase (Homo sapiens) (UniProt O14578); conditions: Compound concentration 1000.0 nM
[38] = target: Mitogen-activated protein kinase 3 (Homo sapiens) (UniProt P27361); conditions: Compound concentration 1000.0 nM
[39] = target: Alpha-2C adrenergic receptor (Homo sapiens) (UniProt P18825); conditions: Compound concentration 10.0 uM
[40] = target: Cytoplasmic tyrosine-protein kinase BMX (Homo sapiens) (UniProt P51813); conditions: Compound concentration 1000.0 nM
[41] = target: Insulin receptor (Homo sapiens) (UniProt P06213); conditions: Compound concentration 1000.0 nM
[42] = target: 5-hydroxytryptamine receptor 2A (Homo sapiens, UniProt P28223); conditions: Compound concentration 10.0 uM
[43] = target: Serine/threonine-protein kinase Chk2 (Homo sapiens) (UniProt O96017); conditions: Compound concentration 1000.0 nM
[44] = target: Calcium-dependent protein kinase 1 (Plasmodium falciparum) (UniProt P62344); conditions: Compound concentration 1000.0 nM
[45] = target: Histamine H2 receptor (Homo sapiens) (UniProt P25021); conditions: Compound concentration 10.0 uM
[46] = target: Kappa-type opioid receptor (Homo sapiens, UniProt P41145); conditions: Compound concentration 10.0 uM

In the case of `O=C(Nc1cnc(Oc2ccc(F)cc2)nc1)N1CCc2ncccc2[C@@H]1c1ccc(F)cc1` [BAY-899], the residual activity [1] was 100%, the residual activity [2] was 100% and the residual activity [3] was 95%. For the same compound, the residual activity [4] was 94%, the residual activity [5] was 89% and the residual activity [6] was 86%. The residual activity [7] was 92%, the residual activity [8] was 94% and the residual activity [9] was 97%. For the same compound, the residual activity [10] was 100%, the residual activity [11] was 82% and the residual activity [12] was 100%. It also gave a residual activity [13] of 100%, a residual activity [14] of 80% and a residual activity [15] of 90%. For the same compound, the residual activity [16] was 88%, the residual activity [17] was 100% and the residual activity [18] was 75%. The residual activity [19] was 75%, the residual activity [20] was 100% and the residual activity [21] was 90%. For the same compound, the residual activity [22] was 100%, the residual activity [23] was 100% and the residual activity [24] was 92%. The residual activity [25] was 89%, the residual activity [26] was 93% and the residual activity [27] was 100%. It also gave a residual activity [28] of 97%, a residual activity [29] of 88% and a residual activity [30] of 86%. It also gave a residual activity [31] of 98%, a residual activity [32] of 95% and a residual activity [33] of 71%. It also gave a residual activity [34] of 76%, a residual activity [35] of 91% and a residual activity [36] of 87%. For the same compound, the residual activity [37] was 88%, the residual activity [38] was 92% and the inhibition [39] was 8.55%. For the same compound, the residual activity [40] was 94%, the residual activity [41] was 81% and the inhibition [42] was 8.72%. The residual activity [43] was 92%, the residual activity [44] was 95% and the inhibition [45] was 2.75%. It also gave an inhibition [46] of 56.3%.

Work on `O=C(Nc1ccc(Oc2ccc(F)cc2)cc1)N1CCc2ncccc2[C@H]1c1ccc(F)cc1` [BAY-897] yielded a residual activity [1] of 94%, a residual activity [2] of 100% and a residual activity [3] of 100%. The residual activity [4] was 89%, the residual activity [5] was 93% and the residual activity [6] was 100%. For the same compound, the residual activity [7] was 93%, the residual activity [8] was 89% and the residual activity [9] was 95%. For the same compound, the residual activity [10] was 96%, the residual activity [11] was 95% and the residual activity [12] was 100%. For the same compound, the residual activity [13] was 100%, the residual activity [14] was 100% and the residual activity [15] was 92%. The residual activity [16] was 82%, the residual activity [17] was 97% and the residual activity [18] was 68%. The residual activity [19] was 79%, the residual activity [20] was 100% and the residual activity [21] was 100%. The residual activity [22] was 70%, the residual activity [23] was 95% and the residual activity [24] was 100%. For the same compound, the residual activity [25] was 75%, the residual activity [26] was 95% and the residual activity [27] was 88%. The residual activity [28] was 93%, the residual activity [29] was 90% and the residual activity [30] was 94%. For the same compound, the residual activity [31] was 91%, the residual activity [32] was 75% and the residual activity [33] was 82%. It also gave a residual activity [34] of 93%, a residual activity [35] of 86% and a residual activity [36] of 90%. For the same compound, the residual activity [37] was 91%, the residual activity [38] was 87% and the inhibition [39] was 8.47%. For the same compound, the residual activity [40] was 100%, the residual activity [41] was 86% and the inhibition [42] was 54.5%. It also gave a residual activity [43] of 94%, a residual activity [44] of 96% and an inhibition [45] of 7.29%. The inhibition [46] was 79.3%.
